Experimental findings from patent publication US9663496B2, “AMPK-activating heterocyclic compounds and methods for using the same” (Rigel Pharmaceuticals, Inc., priority 2010, dated 2017) are described below.

For orientation: EC50 means the concentration at which the effect is half-maximal. Read a high EC50 as weaker potency.

SMILES strings stand for the structures.

This assay concerns the target AMPK. As to the kind of experiment: AMPK activation, enzyme-linked immunosorbent assay. In kind it is biochemical. To be noted: EC50 for AMPK activation, ELISA. Summed up: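 Activation by each compound is measured using a conventional commercial immunoassay kit.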
In general terms: In an ELISA, binding on a coated surface is turned into a signal by an enzyme label.
Regarding `COc1ccc(C(=O)C2CCN(C(=O)c3ccc(C(=O)N[C@H]4CC[C@@H](Oc5ccc(C#N)cc5)CC4)nc3)CC2)cc1` [Compound 171, N-((cis)-4-(4-cyanophenoxy)cyclohexyl)-5-(4-(4-methoxybenzoyl)piperidine-1-carbonyl)picolinamide], the EC50 was below 500 nM. Under `O=C(NC1CCN(Cc2ccc(F)cc2)CC1)c1ccc(C(=O)N2CCC(Oc3ccc(C(F)(F)F)cc3)CC2)cn1` [Compound 179, N-(1-(4-fluorobenzyl)piperidin-4-yl)-5-(4-(4-(trifluoromethyl)phenoxy)piperidine-1-carbonyl)picolinamide] stands below 500 nM. Take `COc1ccc(C(=O)C2CCN(C(=O)c3ccc(C(=O)NC4CCN(Cc5ccc(C#N)cc5)CC4)nc3)CC2)cc1` [Compound 129, N-(1-(4-cyanobenzyl)piperidin-4-yl)-5-(4-(4-methoxybenzoyl)piperidine-1-carbonyl)picolinamide]: the EC50 was below 500 nM. For `O=C(NC1CCN(Cc2ccc(Cl)cc2)CC1)c1ccc(C(=O)N2CCN(Cc3ccc(F)cc3)CC2)cn1` [Compound 52, N-(1-(4-chlorobenzyl)piperidin-4-yl)-5-(4-(4-fluorobenzyl)piperazine-1-carbonyl)picolinamide], the EC50 is below 500 nM.

In turn, `N#Cc1ccc(CN2CCC(NC(=O)c3ccc(C(=O)N4CCC(Oc5ccncc5)CC4)cn3)CC2)cc1` [Compound 269, N-(1-(4-cyanobenzyl)piperidin-4-yl)-5-(4-(pyridin-4-yloxy)piperidine-1-carbonyl)picolinamide] displayed an EC50 below 500 nM.

In turn, `CC(C)(c1ccc(C#N)cc1)N1CCC(NC(=O)c2ccc(C(=O)N3CCN(Cc4ccc(F)cc4)CC3)cn2)CC1` [Compound 111, N-(1-(2-(4-cyanophenyl)propan-2-yl)piperidin-4-yl)-5-(4-(4-fluorobenzyl)piperazine-1-carbonyl)picolinamide] returned an EC50 of 1000 to 5000 nM. Take `COc1ccc(C(=O)C2CCN(c3ccc(C(=O)N4CCN(Cc5ccc(F)cc5)CC4)cn3)CC2)cc1` [Compound 189, (4-(4-fluorobenzyl)piperazin-1-yl)(6-(4-(4-methoxybenzoyl)piperidin-1-yl)pyridin-3-yl)methanone]: the EC50 is 1000 to 5000 nM. On to `COc1ccc(C(=O)C2CCN(C(=O)c3ccc(C(=O)NC4CCN(Cc5ccc(F)cc5)CC4)cn3)CC2)cc1` [Compound 317, N-(1-(4-fluorobenzyl)piperidin-4-yl)-6-(4-(4-methoxybenzoyl)piperidine-1-carbonyl)nicotinamide], for which the EC50 is below 500 nM. For `COc1ccc(CN2CCC(NC(=O)c3ccc(C(=O)N4CCC(C(=O)c5ccc(N6CCCC6)cc5)CC4)nc3)CC2)cc1` [Compound 439, N-(1-(4-methoxybenzyl)piperidin-4-yl)-6-(4-(4-(pyrrolidin-1-yl)benzoyl)piperidine-1-carbonyl)nicotinamide], the EC50 is below 500 nM. `CS(=O)(=O)c1ccc(OC2CCN(C(=O)c3ccc(C(=O)NC4CCN(Cc5cccc(OC(F)(F)F)c5)CC4)cn3)CC2)cc1` [Compound 239, 6-(4-(4-(methylsulfonyl)phenoxy)piperidine-1-carbonyl)-N-(1-(3-(trifluoromethoxy)benzyl)piperidin-4-yl)nicotinamide]: the EC50 was in the range of 1000 to 5000 nM. As for `COc1cccc(CN2CCC(NC(=O)c3ccc(C(=O)N4CCC(Oc5ccc(S(C)(=O)=O)cc5)CC4)cn3)CC2)c1` [Compound 241, N-(1-(3-methoxybenzyl)piperidin-4-yl)-5-(4-(4-(methylsulfonyl)phenoxy)piperidine-1-carbonyl)picolinamide], the EC50 was below 500 nM. In turn, `CS(=O)(=O)c1ccc(C(=O)C2CCN(C(=O)c3ccc(C(=O)NC4CCN(Cc5ccc(C#N)cc5)CC4)nc3)CC2)cc1` [Compound 228, N-(1-(4-cyanobenzyl)piperidin-4-yl)-5-(4-(4-(methylsulfonyl)benzoyl)piperidine-1-carbonyl)picolinamide] yielded an EC50 below 500 nM. Molecule `N#Cc1ccc(CN2CCC(NC(=O)c3ccc(N4CCN(Cc5ccc(F)cc5)CC4)nn3)CC2)cc1` [Compound 491, N-(1-(4-cyanobenzyl)piperidin-4-yl)-6-(4-(4-fluorobenzyl)piperazin-1-yl)pyridazine-3-carboxamide] returned a 50% effective concentration (EC50) of 1000 to 5000 nM.

For `COc1ccc(CN2CCC(NC(=O)c3ccc(C(=O)N4CCC(C(=O)c5ccc(F)cc5)CC4)cn3)CC2)cc1` [Compound 160, 5-(4-(4-fluorobenzoyl)piperidine-1-carbonyl)-N-(1-(4-methoxybenzyl)piperidin-4-yl)picolinamide], the EC50 is below 500 nM.

In the case of `N#Cc1ccc(CN2CCC(NC(=O)c3ccc(C(=O)N4C5CCC4CC(Oc4ccc(C#N)cc4)C5)cn3)CC2)cc1` [Compound 280, N-(1-(4-cyanobenzyl)piperidin-4-yl)-5-((1R,3r,5S)-3-(4-cyanophenoxy)-8-azabicyclo[3.2.1]octane-8-carbonyl)picolinamide], the 50% effective concentration (EC50) is below 500 nM. Take `N#Cc1ccc(CN2CCC(NC(=O)c3ccc(C(=O)N4CCC(Oc5cccnc5)CC4)cn3)CC2)cc1` [Compound 283, N-(1-(4-cyanobenzyl)piperidin-4-yl)-5-(4-(pyridin-3-yloxy)piperidine-1-carbonyl)picolinamide]: the EC50 was below 500 nM. For `O=C(NC1CCN(Cc2ccc(N3CCCC3)cc2)CC1)c1ccc(C(=O)N2CCC(Oc3ccc(S(=O)(=O)C4CC4)cc3)CC2)nc1` [Compound 248, 6-(4-(4-(cyclopropylsulfonyl)phenoxy)piperidine-1-carbonyl)-N-(1-(4-(pyrrolidin-1-yl)benzyl)piperidin-4-yl)nicotinamide], the EC50 is below 500 nM. Under `COc1ccc(C(=O)C2CCN(C(=O)c3ccc(C(=O)NCCOc4ccc(F)cc4)nc3)CC2)cc1` [Compound 305, N-(2-(4-fluorophenoxy)ethyl)-5-(4-(4-methoxybenzoyl)piperidine-1-carbonyl)picolinamide] stands below 500 nM; under `COc1ccc(C(=O)C2CCN(C(=O)c3ccc(C(=O)NC4CCN(Cc5ccc(C#N)cc5)CC4)nn3)CC2)cc1` [Compound 387, N-(1-(4-cyanobenzyl)piperidin-4-yl)-6-(4-(4-methoxybenzoyl)piperidine-1-carbonyl)pyridazine-3-carboxamide], below 500 nM; under `N#Cc1ccc(CN2CCC(NC(=O)c3ccc(C(=O)N4CCC(Oc5ccc(SC(F)(F)F)cc5)CC4)cn3)CC2)cc1` [Compound 410, N-(1-(4-cyanobenzyl)piperidin-4-yl)-5-(4-(4-(trifluoromethylthio)phenoxy)piperidine-1-carbonyl)picolinamide], below 500 nM.

Turning to `CN(C)c1ccc(OC2CCN(C(=O)c3ccc(C(=O)NC4CCN(Cc5ccc(C#N)cc5)CC4)cn3)CC2)cc1` [Compound 370, N-(1-(4-cyanobenzyl)piperidin-4-yl)-6-(4-(4-(dimethylamino)phenoxy)piperidine-1-carbonyl)nicotinamide], the EC50 was below 500 nM. With `N#Cc1ccc(OC2CCN(C(=O)c3ccc(C(=O)N[C@H]4CC[C@@H](Oc5ccc(F)cc5)CC4)nc3)CC2)cc1` [Compound 303, 5-(4-(4-cyanophenoxy)piperidine-1-carbonyl)-N-((cis)-4-(4-fluorophenoxy)cyclohexyl)picolinamide], the EC50 was below 500 nM. Take `COc1ccc(C(=O)C2CCN(C(=O)c3ccc(C(=O)N[C@@H]4CCN(Cc5ccc(OC(F)(F)F)cc5)C[C@H]4F)cn3)CC2)cc1` (relative stereo) [Compound 350, N-((trans)-3-fluoro-1-(4-(trifluoromethoxy)benzyl)piperidin-4-yl)-6-(4-(4-methoxybenzoyl)piperidine-1-carbonyl)nicotinamide]: the EC50 was below 500 nM. As for `COc1ccc(C(=O)C2CCN(c3ccc(C(=O)NC4CCN(Cc5ccc(C#N)cc5)CC4)nn3)CC2)cc1` [Compound 362, N-(1-(4-cyanobenzyl)piperidin-4-yl)-6-(4-(4-methoxybenzoyl)piperidin-1-yl)pyridazine-3-carboxamide], the concentration giving a half-maximal response (EC50) is below 500 nM.

For the molecule `N#Cc1ccc(CN2CCC(NC(=O)c3ccc(C(=O)N4CCC(Oc5ccc(S(F)(F)(F)(F)F)cc5)CC4)nc3)CC2)cc1` [Compound 493, N-(1-(4-cyanobenzyl)piperidin-4-yl)-6-(4-(4-(pentafluorosulfanyl)phenoxy)piperidine-1-carbonyl)nicotinamide], the EC50 was below 500 nM.

The molecule `O=C(Nc1ccc(Oc2ccc(F)cc2)nc1)c1ccc(C(=O)N2CCC(C(=O)c3ccc(N4CCOCC4)cc3)CC2)cn1` [Compound 379, N-(6-(4-fluorophenoxy)pyridin-3-yl)-5-(4-(4-morpholinobenzoyl)piperidine-1-carbonyl)picolinamide] had a 50% effective concentration (EC50) below 500 nM. In turn, `COc1ccc(C(=O)C2CCN(C(=O)c3ccc(C(=O)N[C@H]4CC[C@@H](Oc5ccc(F)cc5)CC4)nc3)CC2)cc1` [Compound 311, N-((cis)-4-(4-fluorophenoxy)cyclohexyl)-5-(4-(4-methoxybenzoyl)piperidine-1-carbonyl)picolinamide] gave an EC50 below 500 nM. `CC(=O)c1ccc(Oc2ccc(NC(=O)c3ccc(C(=O)N4CCC(Oc5ccc(S(C)(=O)=O)cc5)CC4)cn3)cn2)cc1` [Compound 259, N-(6-(4-acetylphenoxy)pyridin-3-yl)-5-(4-(4-(methylsulfonyl)phenoxy)piperidine-1-carbonyl)picolinamide] gave an EC50 below 500 nM.

Take `COc1ccc(C(=O)C2CCN(C(=O)c3ccc(C(=O)N[C@@H]4CCN(Cc5ccc(C#N)c(F)c5)C[C@H]4F)cn3)CC2)cc1` (relative stereo) [Compound 354, N-((trans)-1-(4-cyano-3-fluorobenzyl)-3-fluoropiperidin-4-yl)-6-(4-(4-methoxybenzoyl)piperidine-1-carbonyl)nicotinamide]: the EC50 is below 500 nM.

Consider `COc1ccc(CC2CCN(C(=O)c3ccc(C(=O)NC4CCN(Cc5ccc(C#N)cc5)CC4)nc3)CC2)cc1` [Compound 131, N-(1-(4-cyanobenzyl)piperidin-4-yl)-5-(4-(4-methoxybenzyl)piperidine-1-carbonyl)picolinamide], for which the EC50 is below 500 nM. Molecule `COc1ccc(C(=O)C2CCN(c3ccc(C(=O)NC4CCN(Cc5ccc(C#N)cc5)CC4)nc3)CC2)cc1` [Compound 302, N-(1-(4-cyanobenzyl)piperidin-4-yl)-5-(4-(4-methoxybenzoyl)piperidin-1-yl)picolinamide] gave an EC50 below 500 nM.
